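Test compounds were applied to cells in 96-well plates for 48 hours at 5 doses. TGI: concentration producing complete growth inhibition.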
How the values were obtained:
Assay in all cases: DTP human tumour cell line panel, 48 h
RPMI-8226 leukemia = tested on: RPMI-8226 leukemia
A549 NSCLC = tested on: A549 NSCLC
786-0 renal = tested on: 786-0 renal
EKVX NSCLC = tested on: EKVX NSCLC
M19-MEL melanoma = tested on: M19-MEL melanoma
SNB-19 CNS = tested on: SNB-19 CNS
U251 CNS = tested on: U251 CNS
SN12C renal = tested on: SN12C renal
OVCAR-3 ovarian = tested on: OVCAR-3 ovarian
SNB-75 CNS = tested on: SNB-75 CNS
HT29 colon = tested on: HT29 colon
M14 melanoma = tested on: M14 melanoma
XF 498 CNS = tested on: XF 498 CNS
SK-MEL-28 melanoma = tested on: SK-MEL-28 melanoma
LXFL 529 NSCLC = tested on: LXFL 529 NSCLC
ACHN renal = tested on: ACHN renal
RXF 393 renal = tested on: RXF 393 renal
MALME-3M melanoma = tested on: MALME-3M melanoma
CAKI-1 renal = tested on: CAKI-1 renal
SW-620 colon = tested on: SW-620 colon
DMS 273 small cell lung = tested on: DMS 273 small cell lung
UO-31 renal = tested on: UO-31 renal
UACC-257 melanoma = tested on: UACC-257 melanoma
A498 renal = tested on: A498 renal
SF-539 CNS = tested on: SF-539 CNS
SK-OV-3 ovarian = tested on: SK-OV-3 ovarian
NCI-H23 lung = tested on: NCI-H23 lung
SK-MEL-2 melanoma = tested on: SK-MEL-2 melanoma
NCI-H460 lung = tested on: NCI-H460 lung
DMS 114 small cell lung = tested on: DMS 114 small cell lung
TK-10 renal = tested on: TK-10 renal
MOLT-4 leukemia = tested on: MOLT-4 leukemia
CCRF-CEM leukemia = tested on: CCRF-CEM leukemia
RXF-631 renal = tested on: RXF-631 renal
KM20L2 colon = tested on: KM20L2 colon
K-562 leukemia = tested on: K-562 leukemia
SF-295 CNS = tested on: SF-295 CNS
SF-268 CNS = tested on: SF-268 CNS
UACC-62 melanoma = tested on: UACC-62 melanoma
OVCAR-8 ovarian = tested on: OVCAR-8 ovarian
HL-60(TB) leukemia = tested on: HL-60(TB) leukemia
HCC-2998 colon = tested on: HCC-2998 colon
COLO 205 colon = tested on: COLO 205 colon
HCT-116 colon = tested on: HCT-116 colon
LOX IMVI melanoma = tested on: LOX IMVI melanoma
NCI-H226 lung = tested on: NCI-H226 lung
SK-MEL-5 melanoma = tested on: SK-MEL-5 melanoma
IGROV1 ovarian = tested on: IGROV1 ovarian
HOP-62 NSCLC = tested on: HOP-62 NSCLC
NCI-H522 lung = tested on: NCI-H522 lung
SNB-78 CNS = tested on: SNB-78 CNS
HCT-15 colon = tested on: HCT-15 colon
HOP-92 NSCLC = tested on: HOP-92 NSCLC
KM12 colon = tested on: KM12 colon
OVCAR-5 ovarian = tested on: OVCAR-5 ovarian
HOP-18 NSCLC = tested on: HOP-18 NSCLC
SR leukemia = tested on: SR leukemia

Measured: TGI

Cc1ccc(NC(=O)CC/C(CC(=O)C(C)(C)C)=N/Nc2nnc(C)n2N)cc1C
> 100 µM: RPMI-8226 leukemia | A549 NSCLC | 786-0 renal | EKVX NSCLC | M19-MEL melanoma | SNB-19 CNS | U251 CNS | SN12C renal | OVCAR-3 ovarian | SNB-75 CNS | HT29 colon | M14 melanoma | XF 498 CNS | SK-MEL-28 melanoma | LXFL 529 NSCLC | ACHN renal | RXF 393 renal | MALME-3M melanoma | CAKI-1 renal | SW-620 colon | DMS 273 small cell lung | UO-31 renal | UACC-257 melanoma | A498 renal | SF-539 CNS | SK-OV-3 ovarian | NCI-H23 lung | SK-MEL-2 melanoma | NCI-H460 lung | DMS 114 small cell lung | TK-10 renal | MOLT-4 leukemia | CCRF-CEM leukemia | RXF-631 renal | KM20L2 colon | K-562 leukemia | SF-295 CNS | SF-268 CNS | UACC-62 melanoma | OVCAR-8 ovarian | HL-60(TB) leukemia | HCC-2998 colon | COLO 205 colon | HCT-116 colon | LOX IMVI melanoma | NCI-H226 lung | SK-MEL-5 melanoma | IGROV1 ovarian | HOP-62 NSCLC | NCI-H522 lung | SNB-78 CNS | HCT-15 colon | HOP-92 NSCLC | KM12 colon | OVCAR-5 ovarian | HOP-18 NSCLC | SR leukemia

Source: PubChem BioAssay (NCI)
